The values below come from US20240366540A1, “MITOFUSIN INHIBITORS AND USES THEREOF” (Albert Einstein College of Medicine, priority 2021, published 2024).

The subject of test [1] is MEFs. The test is described as follows: RNA-seq gene expression. Type of test: cell-based, mouse. The settings on record: RNA-seq. An excerpt: RNA-seq. Sequencing results were demultiplexed and converted to FASTQ format using Illumina bcl2fastq software. The sequencing reads were adapter and quality trimmed with Trimmomatic and then aligned to the mouse genome (build mm10/GRCm38) using the splice-aware STAR aligner. The featureCounts program was utilized to generate counts for each gene based on how many aligned reads overlap its exons. These counts were then normalized and used to test for differential expression using negative binomial generalized linear models implemented by the DESeq2 R package.

In test [2] the test system is MEFs. In words: Mitochondrial respiration in cellulo (OCR, Seahorse XF24). Type of test: cell-based, mouse. The settings on record: WT MEFs; MASM7 1 μM or MFI8 20 μM, 6 hrs. As for the experimental part: Mitochondrial respiration in cellulo. Mitochondrial oxygen consumption rates (OCR) were assessed using a XF24 Analyzer (Seahorse Biosciences, Billerica MA, USA). In brief, 3×10^4 MEFs were cultured in a XF24 cell culture microplate containing DMEM supplemented with 10% fetal bovine serum. […] OCR was normalized to cell number or total protein content per well for each condition tested.

Test [3] relates to MEFs. The test is described as follows: Mitochondrial aspect ratio (Mito AR), live cell imaging.
Procedure: Live cell imaging. MEFs were seeded on chamber slides (MatTek Corporation: 35 mm dishes, No. 1.5, 14 mm glass diameter) at ˜70% confluence. […] Images were taken with Leica SP5 inverted confocal microscope. Data were analyzed with Image J software. >200 mitochondria were measured per condition in mitochondrial aspect ratio.
Measurement of mitochondrial aspect ratio (Mito AR). Images that depict stained mitochondria with mitotracker green were analyzed using FIJI We measured for each mitochondrion its length and width. Then, we divided the length by the width for each mitochondrion to get its mitochondrial aspect ratio. >200 mitochondria were measured per treatment.
A further test relates to cells. In words: Cell viability assay (CellTiter-Glo). Type of test: cell-based. To be noted: 72 hours. As for the experimental part: Cell viability assay. […] Cell viability was assayed after 72 hrs by addition of CellTiter-Glo reagent according to the manufacturer's protocol (Promega). Luminescence was measured using a […] microplate reader (TECAN). Viability assays were performed in at least triplicate and the data normalized to vehicle-treated control wells.
Background: Cellular ATP, detected with luciferase, serves as a proxy for viable cell number.

For test [4], the system named is MEFs. The test is described as follows: DNA damage, yH2AX immunofluorescence in MEFs. It counts as cell-based, mouse. The settings on record: 6 h. The protocol:
Immunofluorescent analysis and microscopy. […] After treatments, cells were washed with PBS and fixed with 4% PFA for 15 min. […] After incubation with primary antibodies, cells were washed with PBS and incubated with the appropriate mouse secondary antibody (ThermoFisher Scientific; A-11001) in the blocking solution. After PBS washes, coverslips were dipped in water and mounted on glass slides using Vectashield containing DAPI (Vector laboratories). […] Data were analyzed with ImageJ.

In test [5] the test system is mitochondrial biogenesis markers. In words: Mitochondrial biogenesis markers by q-PCR. Type of test: cell-based. The protocol: Analysis of mitochondrial biogenesis-related genes by q-PCR. Total RNA was extracted by using RNeasy Mini Kit (Qiagen) followed by cDNA synthesis using the SuperScript IV VILO Master Mix (Thermo Scientific), both performed according to the manufacturer's protocol. q-PCR was performed using the following primers: For the q-PCR reaction, Power SYBR Green master mix (Thermo Scientific) was used according to the manufacturer's instructions. […] Rpl39 was used as housekeeping gene and 2^−ΔΔCT method was applied to determine the relative mRNAs expression.

Test [6] deals with MEFs. In words: Caspase-3/7 activation assay. It counts as cell-based, mouse. To be noted: 6 hr, Caspase-Glo 3/7. As for the experimental part: Caspase-3/7 activation assay. Cells (5×10^3 cells/well) were seeded in a 96-well white plate and treated with MASM7, MFI8. Caspase 3/7 activation was measured after 6 hr by addition of the Caspase-Glo 3/7 reagent according to the manufacturer's protocol (Promega). Luminescence was detected by a F200 PRO microplate reader (TECAN). Caspase assays were performed in at least triplicate and the data normalized to vehicle-treated control wells. Dilutions of MASM7 or MFI8 were performed using a TECAN D300e Digital Dispenser from 10 mM stocks.

The test system of test [7] is MEFs. The test is described as follows: Metabolomics (TCA cycle carboxylic acids, NAD, NADH). It counts as cell-based, mouse. As for the experimental part: Metabolomics. […] Cells were harvested using a cell scraper and centrifuged at 1200 rpm in 4° C. for 3 min. Each cell pellet sample was suspended into 250 to 700 μL of 80% aqueous methanol in an Eppendorf tube. The samples were vortex mixed for 15 s and sonicated in an ice-water bath for 5 min, followed by centrifugal clarification at 15,000 rpm and 5° C. in an Eppendorf […] centrifuge. The clear supernatants were collected. A standard stock solution of TCA cycle carboxylic acids, NAD and NADH was prepared in 80% methanol as S1. This standard solution S1 was serially diluted 1 to 4 (v/v) with the same solvent to make standard solutions S2 to S10. 20 μL of each standard solution and an aliquot of the clear supernatant from each cell was mixed with 20 μL of an internal standard solution containing 9 ^13C- or deuterium labeled analogues of the TCA cycle carboxylic acids (except isocitric acid), 20 μL of 200 mM 3-NPH solution and 20 μL of 150 mM of EDC solution. The mixtures were allowed to react at 30° C. for 30 min. After reaction, 120 μL of water was added to each solution. 10 μL of the resultant solutions was injected into a C18 UPLC column to quantitate the TCA cycle carboxylic acids by UPLC-MRM/MS with (-) ion detection, according to the procedure we described in a publication.

The next test deals with mitochondrial biomass. The test is described as follows: Mitochondrial biomass (Tomm20 protein, mitotracker green intensity, mitochondrial to nuclear DNA ratio). Type of test: cell-based. The protocol:
Western blot. Western blots were performed from whole cell lysates (WCL) prepared in lysis buffer containing 50 mM Tris-HCl pH 7.5, 1% Triton X-100, 150 mM NaCl, 5 mM MgCl2, 1 mM EGTA and 10% glycerol in the presence of protease inhibitor cocktail (Roche). WCL were separated on a 4-12% NuPAGE MES gel (Invitrogen), transferred into a PVDF membrane, block for 1 hr and immunoblot with the corresponding anti-bodies. Determination of mtDNA to genomic DNA ratio by q-PCR. DNA was extracted using DNeasy Blood and Tissue kit (Qiagen) according to the manufacturer's protocol. q-PCR was used to determine the ratio of mitochondrial DNA (mtDNA) and genomic DNA (gn DNA). The following primers were used for q-PCR reaction: […]

Test [8] deals with MEFs. In words: Mitochondrial depolarization assay (TMRE membrane potential). Type of test: cell-based, mouse. The protocol:
Mitochondrial depolarization assay (mtΔΨ). MEFs (10^4 cells/well) were seeded in a 96-well black plate and treated with MASM7 or MFI8 for 6 hrs. Following treatments, cells were stained with 250 nM TMRE (Sigma; Cat. 87917) for 20 min at 37° C. Subsequently, cells were washed with thrice with PBS. Fluorescence intensity was detected by a M100 microplate reader (TECAN, Ex: 540 nm/Em: 579 nm).

Another test deals with MFN1 and MFN2. In words: MFN1 and MFN2 gene expression and protein levels. Type of test: cell-based. The protocol: Western blot. Western blots were performed from whole cell lysates (WCL) prepared in lysis buffer containing 50 mM Tris-HCl pH 7.5, 1% Triton X-100, 150 mM NaCl, 5 mM MgCl2, 1 mM EGTA and 10% glycerol in the presence of protease inhibitor cocktail (Roche).
Analysis of mitochondrial biogenesis-related genes by q-PCR. Total RNA was extracted by using RNeasy Mini Kit (Qiagen) followed by cDNA synthesis using the SuperScript IV VILO Master Mix (Thermo Scientific), both performed according to the manufacturer's protocol. q-PCR was performed using the following primers: […]
For the q-PCR reaction, Power SYBR Green master mix (Thermo Scientific) was used according to the manufacturer's instructions. Briefly, each reaction consisted of 10 ng cDNA, 5 μL Power SYBR Green master mix, 200 nM primers (forward and reverse), and RNase-free water up to 10 μL. q-PCR was performed on the ViiA 7 Real-Time PCR System (Thermo Scientific) with the following cycle parameter: 95° C. for 10 min, 40 cycles of 95° C. for 15 s, and 60° C. for 1 min. q-PCR products were analyzed by melting curves for unspecific products or primer dimer formation. Rpl39 was used as housekeeping gene and 2^−ΔΔCT method was applied to determine the relative mRNAs expression.

Setting [9] is: MFN1/MFN2 DKO MEFs reconstituted with WT MFN2.

Take `CC(Sc1nnc(C2CC2)n1-c1ccccc1)C(=O)Nc1sc2c(c1C(N)=O)CCC2` (stereo not shown) [MASM7, 2-(2-((5-cyclopropyl-4-phenyl-4H-1,2,4-triazol-3-yl)thio)propanamido)-5,6-dihydro-4H-cyclopenta[b]thiophene-3-carboxamide]: the “gene expression of subunits of the respiratory complexes” value in the test on MEFs [1] was “altered expression of selected genes of the respiratory complexes rather than inducing a consistent trend”. For the same molecule, in the test on MEFs [2], the “respiration and mitochondrial ATP production (OCR)” value is “increased basal and maximal respiration and mitochondrial ATP production”. For the same molecule, the mitochondrial aspect ratio result in the test with MEFs [3] (MFN1/MFN2 DKO MEFs reconstituted with D725A/L727A or L727A MFN2 mutants) is given as “not when reconstituted with D725A/L727A or L727A MFN2 mutants”; with MEFs [3] (setting [9]), “markedly increased mitochondrial aspect ratio”. Also, the cellular viability result in the test on cells is listed as “neither MFI8 nor MASM7 decreased cellular viability”. In addition, the “DNA damage (yH2AX foci)” value in the test with MEFs [4] (MFN1/MFN2 DKO MEFs) and with MEFs [4] (WT MEFs) was “did not induce DNA damage in any of the cell lines” throughout. Further, the “gene expression levels of mitochondrial biogenesis markers” value in test [5] was “no alteration”. Also, the caspase-3/7 activity entry in the test with MEFs [6] is “no effect”. Also, the “total NAD+/NADH ratio” value in the test on MEFs [7] is recorded as “no effect on total NAD^+/NADH ratio”. Besides, the “metabolites of the TCA cycle” value in the test with MEFs [7] (UPLC-MRM/MS) is “no significant effect in the majority of the metabolites of the TCA cycle”. For the same molecule, the “Tomm20 protein levels, mitotracker green intensity and mitochondrial to nuclear DNA ratio” value in the test with mitochondrial biomass is given as “neither MASM7 nor MFI8 altered”. Also, the “mitochondrial membrane potential (TMRE)” value in the test with MEFs [8] (setting [9]) was “significantly increased mitochondrial membrane potential”; with MEFs [8] (WT MEFs, 6 hrs) it was “concentration responsively increased mitochondrial membrane potential”. In addition, the “compound-induced increase in mitochondrial membrane potential” value with MEFs [8] (co-treated with myxothiazol or rotenone) is “revoked”. Further, the “MFN1 and MFN2 gene expression and corresponding protein levels” value with MFN1 and MFN2 is recorded as “neither MASM7 nor MFI8 altered”.
